Here are results for 1 compound from patent publication US20160101054A1, “SUSTAINED DELIVERY OF DRUGS FROM BIODEGRADABLE POLYMERIC MICROPARTICLES” (Yale University, priority 2008, published 2016).

Test [1] concerns the target T1, EGFR (Rattus norvegicus, UniProt G3V6K6).
T1 construct: cells expressing EGFR at normal levels; endogenous in cells; host or cells: FR3T3 (Fisher rat 3T3 fibroblasts)
Nature of the test: Bioactivity of AG1478: western blot of phosphorylated EGFR in FR3T3 cells after EGF. In kind it is cell-based. The note with it: for bioactivity by western blot of activated EGFR: FR3T3 cells expressing EGFR at normal levels, concentration equal to IC50, EGF 100 ng/mL. As to the method:
Microsphere size was ascertained using a Multisizer™ 3 Coulter Counter® and confirmed visually via SEM. […] Relative bioactivity was determined using the gray mean value for each phospho-EGFR band.
(In general: In western blotting, separated proteins are transferred to a membrane and probed.)

The subject of test [2] is EGFR. The note with it: in vivo; cited from earlier work.

Molecules are shown by their SMILES.

In the case of `COc1cc2ncnc(Nc3cccc(Cl)c3)c2cc1OC` [AG1478], the “bioactivity by western blot of activated EGFR” value is reported as 89±4.5% on EGFR [1] (listed as non-encapsulated AG1478) and 89±2.7% on EGFR [1] (listed as non-encapsulated inhibitor). The “inhibition in FR3T3 cells” value against EGFR [1] (at 3 mM (~[…] polymer)) is reported as “greater than 95%”. Further, the “EGFR upregulation and activation of astrocytes, survival of RGCs” value in the test on EGFR [2] was “reverses this upregulation and activation of astrocytes and increases the survival of RGCs”.
